Our source for the IC50 and ED50 values is US8653285B2 (Nippon Zoki Pharmaceutical Co., Ltd., priority 2008, dated 2014).

Counter-ions that a name gives are not always drawn. Like-named read-outs stand apart in the source and are kept apart here.

Assay [1] addresses human histamine H1 receptor (Homo sapiens, UniProt P35367). Put plainly: In vitro human histamine H1 receptor binding experiment ([3H]pyrilamine, HEK293A cells stably expressing the receptor). The settings on record: [3H]pyrilamine 3 nmol/L, room temperature 60 minutes. Here is the method:
Recombinant human histamine H1 receptor plasmid (prepared by Invitrogen) was transfected to HEK293A cells with Lipofectamine 2000 (Invitrogen). Cells stably expressing human histamine H1 receptor were screened with Geneticin (Invitrogen). The cells were continued to be cultured using a Dulbecco's Modified Eagle Medium containing 10% fetal bovine serum, 0.1 mmol/L MEM Non-Essential Amino Acids Solution, 2 mmol/L L-glutamine and 0.7 mg/mL Geneticin in a 5% CO2 incubator at 37° C. The cells stably expressing human histamine H1 receptor were prepared using 50 mmol/L Tris-HCl (pH 7.5) (hereinafter referred to as buffer) containing 0.1% bovine serum albumin, so as to have a concentration of 3×10^6 cells/mL, to give a cell sample preparation. Fifty microliters of the buffer, 50 μL of a test substance solution at various concentrations, and 50 μL of [^3H]pyrilamine solution (final concentration: 3 nmol/L) were added to each of the wells on the 96-well plate, and stirred, and 100 μL of the cell sample preparation was then added thereto (at a concentration of 3×10^5 cells/well) to initiate the reaction.
The cells were incubated at room temperature for 60 minutes, and then filtered on UniFilter GF/C plate (Packard) immersed in 0.5% polyethyleneimine using a cell harvester (IH-110, INNOTECH CORPORATION), to stop the reaction, and the plate was washed with the buffer. The plate after washing was sufficiently dried, and 20 μL of a scintillator (MaxiLight, manufactured by Hidex) was added thereto, and count per minute (cpm) was measured with a multi-labeled microplate reader (Plate Chameleo II, Hidex). The nonspecific binding was cpm in a case where 30 μmol/L pyrilamine was added. The experiments were carried out at n=3, and at least repeated 3 times.

The subject of assay [2] is histamine-induced vascular hyperpermeability. As to the kind of experiment: Rat histamine-induced vascular hyperpermeability reaction (in vivo antihistamine action). The settings on record: SD male rat, oral administration, histamine injected intracutaneously 1 hour after administration, leaked Evans Blue; read-out: ED50. As for the experimental part: An SD male rat (SPF) of 180 g in weight was previously fed for one week or more by allowing the rat to take a solid feed and tap water ad libitum, under the environment setting of a temperature of 22° C., humidity of 55% and an artificial illumination of 12 hours a day (light phase 8 am to 8 pm), and the rat was fasted overnight to be used for the experiment. Histamine.dihydrochloride (hereinafter referred to as histamine) and Evans Blue were used by dissolving each in physiological saline upon use. A substance to be tested was dissolved in water for injection or suspended in 0.5% carboxymethyl cellulose sodium, and the rat was orally administered with the solution or suspension (dose volume: 5 mL/kg body weight). After 1 hour from the administration, the physiological saline and the histamine solution were each intracutaneously injected to two locations (20 μg/0.05 ml/location) each on a back part of the rat of which hair was sheared with an electric clipper while anesthetizing with an ether. A 0.5% Evans Blue-containing physiological saline was injected into the tail vein of the rat (1 mL/200 g body weight) immediately before the intracutaneous injection of the histamine.
After 30 minutes, the animal was decapitated, and exsanguinated, and the skin was removed to measure an amount of leaked pigment in the blue-stained portion. The measurement of the amount of leaked pigment was carried out as follows. Skins of the pigment leaking site were cut out at two locations, 1 mL of a 2 mol/L aqueous potassium hydroxide solution was added thereto in a test tube, and the test tube was allowed to stand overnight at 37° C. to dissolve. Thereafter, 6 mL of a 1:3 mixed solution of 0.67 mol/L phosphoric acid and acetone was added to the solution, and the mixture was vigorously shaken for 10 minutes. Thereafter, the mixture was filtered, and the absorbance of the filtrate at 620 nm was measured. The absorbance obtained from the two locations of the sites injected with physiological saline, as blank value, was used for a compensation. The amount of leaked pigment was calculated from the calibration curve of Evans Blue at 620 nm.

For the next assay, the target named is T1, cerebral H1 receptor (Mus musculus, UniProt P70174).
T1 construct: The excised brain tissue was homogenized with Polytron (Kinematica); from tissue; host or cells: ICR mouse brain (entire brain except cerebellum and medulla oblongata), homogenate
As to the kind of experiment: Murine cerebral H1 receptor occupying content (ex vivo, 3H-pyrilamine binding in brain homogenate after oral administration). As for the experimental part:
A 6-week-old ICR male mouse was previously fed for one week or more by allowing the mouse to take a solid feed and tap water ad libitum, under the environment setting of a temperature of 22° C., humidity of 55% and an artificial illumination of 12 hours a day, and the mouse was fasted overnight to be used for the experiment. A substance to be tested was dissolved with water for injection or suspended in 0.5% carboxymethyl cellulose solution, and the solution or suspension was orally administered to the mouse (dose volume: 0.1 mL/10 g body weight). After 1 hour from the oral administration, the mouse was decapitated, and the entire brain, except for cerebellum and medulla oblongatae, was rapidly excised. The excised brain tissue was homogenized with Polytron (Kinematica) in an ice-cooled 50 mmol/L phosphate buffered saline (pH 7.4, 100 mg/1.9 mL).
To a test tube for reaction (TPX-Tube) were added 180 μL of the brain homogenate, and 10 μL of ^3H-pyrilamine solution (final concentration: 2 nmol/L) and 10 μL of a non-labeled pyrilamine solution (final concentration: 200 μmol/L) or a 50 mmol/L phosphate buffered saline, and the mixture was incubated at room temperature for 45 minutes, and 2.0 mL of an ice-cooled, 50 mmol/L phosphate buffered saline was then added thereto to stop the reaction. The reaction mixture was filtered with a GF/B filter ([…]), and the filtrate was placed in a vial and dried overnight at 60 degrees. After drying, 10 mL of a scintillator (AL-1, toluene-based, DOJINDO LABORATORIES) was added to the product, and the disintegration per minute (dpm) was measured with a liquid scintillation counter (Packard, U.S.A., TRI-CARB 2700TR) (5 minutes/vial).

Setting [3] is: ICR male mouse, oral administration, brain excised after 1 hour, larger ID50 = lower brain transfer, read-out: ID50 (the source's name).

Chain of human histamine H1 receptor (P35367 whole entry): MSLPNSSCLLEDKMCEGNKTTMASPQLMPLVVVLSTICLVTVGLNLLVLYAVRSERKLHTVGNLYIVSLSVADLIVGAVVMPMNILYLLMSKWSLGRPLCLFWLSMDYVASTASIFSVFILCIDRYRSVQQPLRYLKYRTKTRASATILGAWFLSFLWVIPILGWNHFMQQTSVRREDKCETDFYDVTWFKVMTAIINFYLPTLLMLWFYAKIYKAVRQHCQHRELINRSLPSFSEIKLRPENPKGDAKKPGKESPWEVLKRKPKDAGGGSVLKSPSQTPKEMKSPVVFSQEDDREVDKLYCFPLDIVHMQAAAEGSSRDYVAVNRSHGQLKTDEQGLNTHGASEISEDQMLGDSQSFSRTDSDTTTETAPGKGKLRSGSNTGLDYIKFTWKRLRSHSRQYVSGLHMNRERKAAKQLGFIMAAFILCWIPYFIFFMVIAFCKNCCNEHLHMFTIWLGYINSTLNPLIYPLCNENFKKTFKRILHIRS
T1 sequence (P70174 whole entry): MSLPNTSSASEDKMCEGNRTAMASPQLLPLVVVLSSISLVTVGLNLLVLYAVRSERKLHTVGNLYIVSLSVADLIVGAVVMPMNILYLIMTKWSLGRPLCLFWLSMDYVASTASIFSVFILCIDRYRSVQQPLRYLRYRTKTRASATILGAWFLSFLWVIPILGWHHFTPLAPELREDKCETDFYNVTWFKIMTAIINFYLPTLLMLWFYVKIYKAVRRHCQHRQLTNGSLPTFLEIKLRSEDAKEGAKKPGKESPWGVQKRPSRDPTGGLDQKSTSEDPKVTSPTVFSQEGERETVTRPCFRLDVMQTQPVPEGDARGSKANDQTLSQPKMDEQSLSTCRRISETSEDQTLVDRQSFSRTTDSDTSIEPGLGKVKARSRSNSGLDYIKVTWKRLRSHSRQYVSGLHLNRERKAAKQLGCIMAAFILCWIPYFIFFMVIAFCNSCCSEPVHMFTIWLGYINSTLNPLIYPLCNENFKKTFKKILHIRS

For orientation: IC50 means the concentration that inhibits the measured activity by half. In turn, `CCOC(=O)C(C)(C)c1ccc2c(c1)C(=CCCN(C)C)c1sccc1CO2` [Compound 21, Ethyl (E,Z)-2-[4-(3-dimethylaminopropylidene)-4,10-dihydro-9-oxa-3-thiabenzo[f]azulen-6-yl]-2-methylpropionate hydrochloride] had a concentration for half-maximal inhibition (IC50) in assay [1] of 0.0747 µM.
The same measure, in the same setting: with `CN(C)CC/C=C1/c2cc(CC(=O)O)ccc2CCc2ccsc21` [Compound 65, (Z)-[4-(3-Dimethylaminopropylidene)-9,10-dihydro-4H-3-thiabenzo[f]azulen-6-yl]acetic acid hydrochloride] the figure was 0.014 µM; with `CN(C)CC/C=C1\c2cc(CC(=O)O)ccc2CCc2ccsc21` [Compound 64, (E)-[4-(3-Dimethylaminopropylidene)-9,10-dihydro-4H-3-thiabenzo[f]azulen-6-yl]acetic acid], 0.00856 µM.
Take `CN(C)CC/C=C1/c2ccccc2CCc2sc(CC(=O)O)cc21.Cl` [Compound 18, (Z)-[4-(3-Dimethylaminopropylidene)-9,10-dihydro-4H-1-thiabenzo[f]azulen-2-yl]acetic acid hydrochloride]: the ED50 in assay [2] came to 0.063 mg/kg; on cerebral H1 receptor (mouse, po, 1 h, read-out: ID50), 2.1 mg/kg.
With `CN(C)CCC=C1c2ccccc2CCc2sc(C(=O)NCCO)cc21` [Compound 9, (E,Z)-4-(3-Dimethylaminopropylidene)-9,10-dihydro-4H-1-thiabenzo[f]azulene-2-carboxylic-(2-hydroxyethyl)amide hydrochloride], the IC50 in assay [1] was 0.0557 µM.
Turning to `CN(C)CC/C=C1/c2cc(CC(=O)O)ccc2OCc2ccsc21` [Compound 20, (Z)-[4-(3-Dimethylaminopropylidene)-4,10-dihydro-9-oxa-3-thiabenzo[f]azulen-6-yl]acetic acid], the ED50 in assay [2] was found to be 0.45 mg/kg; on cerebral H1 receptor (setting [3]), 109 mg/kg.
`CN(C)CCC=C1c2ccccc2CCc2sc(C(C)(C)C(=O)O)cc21` [Compound 23, (E,Z)-2-[4-(3-Dimethylaminopropylidene)-9,10-dihydro-4H-1-thiabenzo[f]azulen-2-yl]-2-methylpropionic acid] returned an IC50 in assay [1] of 0.0746 µM.
On the same count and under the same terms, as for `O=C(O)Cc1ccc2c(c1)/C(=C\CCN1CCC(=O)CC1)c1sccc1CO2` [Compound 62, (E)-{4-[3-(4-Oxopiperidin-1-yl)propylidene]-4,10-dihydro-9-oxa-3-thiabenzo[f]azulen-6-yl}acetic acid], the figure is 0.0605 µM.
Still for that read-out and setting: with `CCOC(=O)/C=C/c1ccc2c(c1)/C(=C/CCN(C)C)c1sccc1CO2` [Compound 13, Ethyl (E,Z)-3-[4-(3-dimethylaminopropylidene)-4,10-dihydro-9-oxa-3-thiabenzo[f]azulen-6-yl]acrylate hydrochloride] the figure was 0.0324 µM.
Consider `CN1CCC(=C2c3ccccc3CC(=O)c3sccc32)CC1` [Ketotifen, reference compound], for which the ED50 in assay [2] turned out to be 0.54 mg/kg.
With `O=C(O)Cc1ccc2c(c1)/C(=C/CCNCc1ccccc1)c1sccc1CO2` [Compound 43, (Z)-[4-(3-Benzylaminopropylidene)-4,10-dihydro-9-oxa-3-thiabenzo[f]azulen-6-yl]acetic acid], the results for the ED50 (in assay [2]; on cerebral H1 receptor (setting [3])) were 1.31 mg/kg and above 80 mg/kg, respectively.
Take `O=C(O)Cc1ccc2c(c1)/C(=C\CCN1CCN(c3ccccc3)CC1)c1sccc1CO2` [Compound 54, (E)-{4-[3-(4-Phenylpiperadin-1-yl)propylidene]-4,10-dihydro-9-oxa-3-thiabenzo[f]azulen-6-yl}acetic acid]: the IC50 in assay [1] is 0.0109 µM.
As to `O=C(O)Cc1ccc2c(c1)/C(=C\CCN1CCC(N3CCCCC3)CC1)c1sccc1CO2` [Compound 66, (E)-{4-[3-([1,4′]Bipiperidin-1′-yl)propylidene]-4,10-dihydro-9-oxa-3-thiabenzo[f]azulen-6-yl}acetic acid diformate], the IC50 in assay [1] stood at 0.0312 µM.
On to `O=C(O)Cc1ccc2c(c1)/C(=C/CCN1CCCCC1)c1sccc1CO2` [Compound 35, (Z)-{4-[3-(Piperidin-1-yl)propylidene]-4,10-dihydro-9-oxa-3-thiabenzo[f]azulen-6-yl}acetic acid], for which the figures for the ED50 (in assay [2]; at cerebral H1 receptor (setting [3])) were around 0.1 mg/kg and 65.7 mg/kg, respectively.
Turning to `CN(C)CC/C=C1\c2cc(CCC(=O)O)ccc2OCc2sccc21` [Compound 56, (E)-3-[4-(3-Dimethylaminopropylidene)-4,10-dihydro-9-oxa-1-thiabenzo[f]azulen-6-yl]propionic acid hydrochloride], the IC50 in assay [1] amounted to 0.029 µM.
The same measure, in the same setting: as for `O=C(O)Cc1ccc2c(c1)C(=CCCN1CCSCC1)c1sccc1CO2` [Compound 68, (E,Z)-{4-[3-(Thiomorpholin-4-yl)propylidene]-4,10-dihydro-9-oxa-3-thiabenzo[f]azulen-6-yl}acetic acid], the figure is 0.0452 µM; as for `CCOC(=O)c1ccc2c(c1)C(=CCCN(C)C)c1sccc1CO2` [Compound 3, Ethyl (E,Z)-4-(3-dimethylaminopropylidene)-4,10-dihydro-9-oxa-3-thiabenzo[f]azulene-6-carboxylate hydrochloride], 0.0222 µM; as for `O=C(O)Cc1ccc2c(c1)/C(=C\CCNCc1ccccc1)c1sccc1CO2` [Compound 42, (E)-[4-(3-Benzylaminopropylidene)-4,10-dihydro-9-oxa-3-thiabenzo[f]azulen-6-yl]acetic acid], 0.0998 µM.
Take `CN(C)CC/C=C1/c2ccccc2CCc2sc(C(=O)O)cc21` [Compound 16, (Z)-[4-(3-Dimethylaminopropylidene)-9,10-dihydro-4H-1-thiabenzo[f]azulen-2-yl]carboxylic acid]: the ED50 in assay [2] is 0.299 mg/kg; at cerebral H1 receptor (setting [3]) it was 45.8 mg/kg.
On to `O=C(O)Cc1ccc2c(c1)/C(=C/CCN1CCN(c3ccccc3)CC1)c1sccc1CO2` [Compound 55, (Z)-{4-[3-(4-Phenylpiperadin-1-yl)propylidene]-4,10-dihydro-9-oxa-3-thiabenzo[f]azulen-6-yl}acetic acid], for which the IC50 in assay [1] is 0.0196 µM.
On the same count and under the same terms, with `CC(C)(C(=O)O)c1cc2c(s1)CCc1ccccc1/C2=C\CCN1CCCC1` [Compound 69, (E,Z)-2-Methyl-2-{4-[3-(pyrrolidin-1-yl)propylidene]-9,10-dihydro-4H-1-thiabenzo[f]azulen-2-yl}propionic acid] the figure was 0.0538 µM; with `CN(CC/C=C1\c2cc(CC(=O)O)ccc2OCc2ccsc21)Cc1ccccc1` [Compound 40], 0.0191 µM.
